From patent US7501530B2, “Trifluoromethyl-thiophene carboxylic acid aniledes and use thereof as fungicides” (BASF Aktiengesellschaft, priority 2003, dated 2009)

Experiments:
[1] = system: Sphaerotheca fuliginea; assay: Protective activity against mildew of cucumber (Use Example 3); type: in vivo; settings: 63 ppm spray; cucumber seedlings, cotyledon area; inoculated 20 hours after spray coating dried; assessed after 7 days; untreated 90%
Protocol: Protective Activity Against Mildew of Cucumber Caused by Sphaerotheca fuliginea Leaves of potted cucumber seedlings of the cultivar “Chinese Snake”, in the cotyledon stage, were sprayed to runoff point with an aqueous suspension having the concentration stated below of active compounds. The suspension or emulsion was prepared from a stock solution containing 10% of active compound in a mixture comprising 85% of cyclohexanone and 5% of emulsifier. 20 hours after the spray coating had dried on, the plants were inoculated with an aqueous spore suspension of mildew of cucumber (Sphaerotheca fuliginea). The plants were then cultivated in a greenhouse at 20-24° C. and 60-80% relative atmospheric humidity for 7 days. The extent of mildew development was then determined visually in % infection of the cotyledon area.

[2] = system: Botrytis cinerea; assay: Activity and persistency against gray mold on bell-pepper leaves (Use Example 1); type: in vivo; settings: 63 ppm spray; bell-pepper seedlings; inoculated 7 days after treatment; assessed visually after 5 days; untreated 90%
Protocol: Activity and Persistency against Gray Mold, Caused by Botrytis cinerea, on Bell-pepper Leaves Bell-pepper seedlings of the cultivar “Neusiedler Ideal Elite” having 4-5 well-developed leaves were sprayed to runoff point with an aqueous suspension having the concentration stated below of active compounds. The suspension or emulsion was prepared from a stock solution containing 10% of active compound in a mixture comprising 85% of cyclohexanone and 5% of emulsifier. The plants were then cultivated for a further 7 days, and the treated plants were then inoculated with a spore suspension of Botrytis cinerea, which comprised 1.7×10^6 spores/ml in a 2% strength aqueous biomalt solution. The test plants were then placed in a climatized chamber at 22-24° C. in high atmospheric humidity. After 5 days, the extent of the fungal infection on the leaves could be determined visually in %, giving not only an indication of the fungicidal action of the substances but also of the persistency.

[3] = system: Botrytis cinerea; assay: Protective activity against gray mold on bell-pepper leaves (Use Example 2); type: in vivo; settings: 250 ppm spray; bell-pepper seedlings; inoculated the next day; assessed visually after 5 days; untreated 100%
Description: Protective Activity against Gray Mold, Caused by Botrytis cinerea, on Bell-pepper Leaves Bell-pepper seedlings of the cultivar “Neusiedler Ideal Elite” having 4-5 well-developed leaves were sprayed to runoff point with an aqueous suspension having the concentration stated below of active compounds. The active compounds were separately prepared as a stock solution containing 0.25% by weight of active compound in acetone or dimethyl sulfoxide. This solution was admixed with 1% by weight of Emulgator Uniperol® EL (wetting agent based on ethoxylated alkylphenols which has an emulsifying and dispersing effect) and diluted with water to the desired concentration. The next day, the treated plants were inoculated with a spore suspension of Botrytis cinerea, comprising 1.7×10^6 spores/ml in a 2% strength aqueous biomalt solution. The test plants were then placed in a climatized chamber at 22-24° C. in high atmospheric humidity. After 5 days, the extent of the fungal infection on the leaves could be determined visually in %.

SMILES	Foliar infection [%] at 63 ppm [1] [%]	Foliar infection [%] at 63 ppm [2] [%]	other results
O=C(Nc1ccccc1-c1ccccc1)c1sccc1C(F)(F)F [I-12]	0		
O=C(Nc1ccccc1C1CCCC1)c1ccsc1C(F)(F)F [II-2]		10	
O=C(Nc1ccccc1C1CCCCC1)c1sccc1C(F)(F)F [I-3]	5	3	
O=C(Nc1ccccc1-c1ccc(F)cc1)c1ccsc1C(F)(F)F [II-7]	5	1	
O=C(Nc1ccccc1-c1ccc(Cl)cc1)c1ccsc1C(F)(F)F [II-6]	0		
CC(C)Oc1cccc(NC(=O)c2sccc2C(F)(F)F)c1 [I-8]		10	
O=C(Nc1ccccc1-c1ccc(Cl)cc1)c1sccc1C(F)(F)F [I-6]	0	1	
CCC(C)c1ccccc1NC(=O)c1cscc1C(F)(F)F (stereo not drawn) [III-5]			Foliar infection [%] at 250 ppm [3]: 3%
O=C(Nc1ccccc1C1CCCC1)c1sccc1C(F)(F)F [I-2]		7	
Cc1ccccc1-c1ccccc1NC(=O)c1cscc1C(F)(F)F [III-4]			Foliar infection [%] at 250 ppm [3]: 3%
O=C(Nc1ccccc1C1CCCCC1)c1ccsc1C(F)(F)F [II-3]	3	5	
O=C(Nc1ccccc1OCC(F)(F)F)c1sccc1C(F)(F)F [I-14, N-(2-(2,2,2-trifluoroethoxy)phenyl)-3-trifluoromethylthiophene-2-carboxamide]			melting point: 125 to 127 °C
CCCCCCOc1cccc(NC(=O)c2ccsc2C(F)(F)F)c1 [II-10]		10	
O=C(Nc1cccc(OC2CCCC2)c1)c1sccc1C(F)(F)F [I-11]		7	
O=C(Nc1ccccc1C1CCCC1)c1cscc1C(F)(F)F [III-7]			Foliar infection [%] at 250 ppm [3]: 7%
CC(C)c1ccc(-c2ccccc2NC(=O)c2sccc2C(F)(F)F)cc1 [I-13]	0		
CC(C)Oc1cccc(NC(=O)c2ccsc2C(F)(F)F)c1 [II-8, N-(3-isopropoxyphenyl)-2-trifluoromethylthiophene-3-carboxamide]		5	
CCC(C)c1ccccc1NC(=O)c1sccc1C(F)(F)F (stereo not drawn) [I-1]		5	
O=C(Nc1ccccc1-c1ccc(F)cc1)c1sccc1C(F)(F)F [I-7]	0	1	
O=C(Nc1ccccc1OC(F)(F)C(F)F)c1sccc1C(F)(F)F [I-5]	5	3	
O=C(Nc1ccccc1OC(F)(F)C(F)F)c1ccsc1C(F)(F)F [II-5]		3	
